Assay results: patent US12318398B2, “MST1 kinase inhibitor and use thereof” (priority 2018, dated 2025)
Read-outs that look alike come from different tables or passages of the source.

How the values were obtained:
C57BL/6 mice = assay: Liver injury repair experiment (paracetamol/APAP-induced); assay type: in vivo
Procedure: C57BL/6 mice, male, 20 g, were maintained in a SPF animal room. Thirty C57BL/6 mice were fasted for 12 hours overnight, and 5 mice of which were intraperitoneally injected with normal saline to act as a normal control group, and the other 25 mice were intraperitoneally injected with paracetamol (APAP) (purchased from Sigma)-600 mg/kg, and randomly divided into 5 groups after 30 minutes, wherein the 5 groups include vehicle (5% DMSO in water), compound 1-1-po, compound 1-2-po, compound 1-4-po, XMU-MP-1-ip groups. Mice in the vehicle group were administered intragastrically with vehicle control; mice in the compound 1-1-po, compound 1-2-po, compound 1-4-po groups were administered intragastrically with compound 1 at 1 mg/kg, 2 mg/kg or 4 mg/kg, respectively; mice in the XMU-MP-1-ip group were intraperitoneally administered with the control compound XMU-MP-1 at 1 mg/kg. After the administration, the body weight of the mice was monitored and the survival status of the mice was observed.

MAP3K2 = MAP3K2 (Homo sapiens (Human), UniProt Q9Y2U5); conditions: literature; cited from earlier work
TAOK = conditions: literature; cited from earlier work
MST1 [1] = molecular target: T1, MST1 (Homo sapiens (Human), UniProt Q13043); assay: In vitro enzyme activity test (ADP-GLO); assay type: biochemical; conditions: ATP 50 μM, 37° C. 1 hour, read-out: MST1 (IC50/μM)
Procedure: The IC50 values of the compounds against MST1 were determined. The protein kinase MST1 and the substrate were obtained from commercial sources.
5.4 μL of protein kinase MST1 diluted to a certain concentration (final concentration was 2.5 ng/μL) and 1 μL of serially diluted drug compounds and control compound XMU-MP-1 were taken to react at room temperature for 10 minutes (final drug concentrations were 10 μM, 1 μM, 0.3 μM, 0.1 μM, 0.03 μM, 0.01 μM, 0.003 μM, 0.001 μM, respectively).
6 μL of a mixture of ATP (with a final reaction concentration of 50 μM) and substrate was added to the above reaction tube to react at 37° C. for 1 hour. The reaction buffer was 40 mM Tris, 7.5; 20 mM MgCl2; 0.1 mg/ml BSA; 50 μM DTT.
5 μL of the kinase mixture after the reaction was taken to a 384-well plate, and 5 μL of ADP-GLO™ reagent was added thereto. After reaction at room temperature for 40 minutes, the kinase reaction was terminated and the remaining ATP was consumed.
10 μL of a kinase detection reagent was added to convert ADP into ATP, and a coupled luciferase/luciferin reaction was utilized to detect the newly synthesized ATP. Envision was used to read and plot the data, and calculate the IC50 value.

MST2 = MST2 (Homo sapiens (Human), UniProt Q13188); conditions: read-out: IC50 against MST2; literature; cited from earlier work
MIN-6 cells = assay: Proliferation of MIN-6 cells (cell counter); conditions: 1 μM, 72 hours
Procedure: The effects of compound 1 and the control compound XMU-MP-1 on MST1 signaling pathway such as autophosphorylation of MST1, apoptosis signaling pathway such as cleavage of four proteins Caspase9/7/3 and PARP, expression of BIM, BAX, BCL-2, BCL-XL protein, proliferation-related signaling pathway such as autophosphorylation of AKT and ERK, and phosphorylation and protein expression of insulin secretion transcription factor PDX1 were tested in mouse pancreatic β-cells, MIN-6 cells (Hunan Fenghuishengwu technology Co., Ltd.). Compound 1 of different concentrations (0 μM, 0.3 μM, 1 μM, 3 μM in DMSO) and XMU-MP-1 of 1 μM (in DMSO) were used to treat the cell line for 72 hours in a medium with a glucose content of 33.3 mM, respectively. One of the control DMSO group involved 5.5 mM glucose and the other one involved 33.3 mM glucose. The samples were collected.
JIMBIO cell counter (EXCEL HERO TECHNOLOGY LIMITED) was used to detect the effect on the proliferation of MIN-6 cells after 72 hours of the administration.

PIK3CG = PIK3CG (Homo sapiens (Human), UniProt P48736); conditions: literature; cited from earlier work
AURKA = AURKA (Homo sapiens (Human), UniProt O14965); conditions: literature; cited from earlier work
MST1 [2] = molecular target: T1, MST1; conditions: literature; read-out: IC50 against MST1; cited from earlier work

T1 sequence (Q13043 whole entry): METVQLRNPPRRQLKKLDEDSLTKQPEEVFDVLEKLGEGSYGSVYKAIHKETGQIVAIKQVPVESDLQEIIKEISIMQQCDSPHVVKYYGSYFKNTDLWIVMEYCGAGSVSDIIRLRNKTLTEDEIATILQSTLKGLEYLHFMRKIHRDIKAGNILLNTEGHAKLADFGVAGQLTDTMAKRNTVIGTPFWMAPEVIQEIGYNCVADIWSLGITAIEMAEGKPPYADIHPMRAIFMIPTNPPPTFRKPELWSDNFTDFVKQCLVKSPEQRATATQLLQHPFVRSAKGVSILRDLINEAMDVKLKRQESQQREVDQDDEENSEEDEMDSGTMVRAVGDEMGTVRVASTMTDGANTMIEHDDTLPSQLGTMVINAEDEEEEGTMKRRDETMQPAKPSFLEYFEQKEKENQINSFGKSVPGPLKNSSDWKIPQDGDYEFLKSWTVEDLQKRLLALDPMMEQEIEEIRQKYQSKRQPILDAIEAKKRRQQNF
MST2, sequence (Q13188 whole entry, species assumed): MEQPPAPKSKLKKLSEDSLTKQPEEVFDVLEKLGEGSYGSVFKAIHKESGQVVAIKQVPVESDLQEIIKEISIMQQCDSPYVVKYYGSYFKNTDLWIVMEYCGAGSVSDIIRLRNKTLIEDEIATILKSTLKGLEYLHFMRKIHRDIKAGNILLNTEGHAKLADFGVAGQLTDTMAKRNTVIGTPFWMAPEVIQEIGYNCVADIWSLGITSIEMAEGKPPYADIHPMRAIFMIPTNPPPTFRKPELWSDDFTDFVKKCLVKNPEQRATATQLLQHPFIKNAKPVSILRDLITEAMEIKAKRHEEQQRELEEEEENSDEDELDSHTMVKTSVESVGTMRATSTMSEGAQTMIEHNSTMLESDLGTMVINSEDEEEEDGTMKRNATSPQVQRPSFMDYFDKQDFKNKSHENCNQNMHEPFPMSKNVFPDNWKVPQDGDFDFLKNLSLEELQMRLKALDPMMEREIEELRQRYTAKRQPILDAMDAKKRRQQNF
MAP3K2, sequence (Q9Y2U5 whole entry, species assumed): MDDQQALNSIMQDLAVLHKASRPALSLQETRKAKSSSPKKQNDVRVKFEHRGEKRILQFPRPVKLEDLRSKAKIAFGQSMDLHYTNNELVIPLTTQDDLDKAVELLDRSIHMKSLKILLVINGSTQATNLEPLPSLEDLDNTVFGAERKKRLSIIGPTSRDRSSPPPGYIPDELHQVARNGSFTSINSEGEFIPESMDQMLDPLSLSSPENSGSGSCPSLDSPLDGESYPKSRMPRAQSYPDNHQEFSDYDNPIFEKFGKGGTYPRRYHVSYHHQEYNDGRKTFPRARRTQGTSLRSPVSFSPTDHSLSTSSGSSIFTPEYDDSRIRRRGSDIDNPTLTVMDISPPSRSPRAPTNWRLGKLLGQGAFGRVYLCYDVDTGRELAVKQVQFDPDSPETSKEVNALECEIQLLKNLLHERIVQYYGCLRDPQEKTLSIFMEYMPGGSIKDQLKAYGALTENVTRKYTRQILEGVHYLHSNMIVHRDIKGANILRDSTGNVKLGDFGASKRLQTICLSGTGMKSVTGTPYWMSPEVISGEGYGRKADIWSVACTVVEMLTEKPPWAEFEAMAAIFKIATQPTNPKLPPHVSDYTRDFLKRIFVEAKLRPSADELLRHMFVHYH
AURKA, sequence (O14965 whole entry, species assumed): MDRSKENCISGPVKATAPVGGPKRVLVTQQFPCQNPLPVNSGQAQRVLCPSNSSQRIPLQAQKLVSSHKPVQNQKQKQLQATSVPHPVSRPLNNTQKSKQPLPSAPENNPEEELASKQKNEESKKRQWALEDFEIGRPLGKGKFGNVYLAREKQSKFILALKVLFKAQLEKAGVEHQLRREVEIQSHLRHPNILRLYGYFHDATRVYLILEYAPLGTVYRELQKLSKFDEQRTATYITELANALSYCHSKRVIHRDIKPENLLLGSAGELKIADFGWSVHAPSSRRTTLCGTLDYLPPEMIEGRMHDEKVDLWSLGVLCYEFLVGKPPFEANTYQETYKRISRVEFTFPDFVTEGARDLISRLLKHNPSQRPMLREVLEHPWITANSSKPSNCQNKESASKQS
PIK3CG, sequence (P48736 whole entry, species assumed): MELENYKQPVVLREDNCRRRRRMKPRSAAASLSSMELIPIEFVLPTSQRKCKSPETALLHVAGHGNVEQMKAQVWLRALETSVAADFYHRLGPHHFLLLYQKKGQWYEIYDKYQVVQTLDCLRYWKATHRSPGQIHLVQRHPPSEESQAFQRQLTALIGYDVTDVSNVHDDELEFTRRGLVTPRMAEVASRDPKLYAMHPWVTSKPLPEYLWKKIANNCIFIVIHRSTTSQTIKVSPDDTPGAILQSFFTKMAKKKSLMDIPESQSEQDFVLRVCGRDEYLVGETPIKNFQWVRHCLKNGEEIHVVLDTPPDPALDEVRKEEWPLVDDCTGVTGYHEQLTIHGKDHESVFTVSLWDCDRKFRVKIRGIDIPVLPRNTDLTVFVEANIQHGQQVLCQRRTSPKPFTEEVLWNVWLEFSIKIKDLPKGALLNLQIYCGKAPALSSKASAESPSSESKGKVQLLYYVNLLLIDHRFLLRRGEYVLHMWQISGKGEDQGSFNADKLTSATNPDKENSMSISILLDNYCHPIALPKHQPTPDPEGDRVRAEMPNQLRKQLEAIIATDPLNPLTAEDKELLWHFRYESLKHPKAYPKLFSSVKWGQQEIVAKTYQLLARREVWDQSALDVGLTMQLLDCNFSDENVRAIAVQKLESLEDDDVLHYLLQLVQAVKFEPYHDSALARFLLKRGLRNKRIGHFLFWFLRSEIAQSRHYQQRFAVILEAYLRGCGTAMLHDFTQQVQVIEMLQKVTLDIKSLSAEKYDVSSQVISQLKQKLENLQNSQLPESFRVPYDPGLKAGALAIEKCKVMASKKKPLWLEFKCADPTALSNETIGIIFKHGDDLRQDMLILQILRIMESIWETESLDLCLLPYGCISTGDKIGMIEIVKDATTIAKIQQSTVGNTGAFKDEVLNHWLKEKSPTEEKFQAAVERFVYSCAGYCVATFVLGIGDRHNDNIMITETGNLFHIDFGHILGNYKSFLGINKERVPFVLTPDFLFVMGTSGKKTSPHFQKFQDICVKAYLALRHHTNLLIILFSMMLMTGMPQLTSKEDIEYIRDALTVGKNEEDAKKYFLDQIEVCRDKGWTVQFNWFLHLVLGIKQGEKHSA

SMILES: CN1C(=O)c2sccc2N(C)c2nc(Nc3ccc(S(N)(=O)=O)cc3)ncc21 [XMU-MP-1]
- survival of the mice (C57BL/6 mice; 1 mg/kg intraperitoneally after APAP 600 mg/kg ip): all escaped from death
- weight of mice (C57BL/6 mice; after APAP 600 mg/kg ip, compound 1 po 1-4 mg/kg, XMU-MP-1 ip 1 mg/kg): can gradually recover
- inhibitory effect on MAP3K2 (MAP3K2): significant inhibitory effect
- inhibitory effect on TAOK (TAOK): significant inhibitory effect
- IC50 (MST1 [1]): 0.121 µM
- IC50 (MST2): 38 nM
- number of cells (MIN-6 cells): reduced to a certain extent
- toxicity to MIN6 cells (MIN-6 cells): toxic to MIN6 cells to a certain extent
- inhibition of PIK3CG (PIK3CG): inhibited
- inhibition of AURKA (AURKA): inhibited
- IC50 (MST1 [2]): 71 nM
